From ChEMBL document CHEMBL1201862, “PubChem BioAssay data set” (2004)
Activity calls are given as the source filed them.

Key:
Streptococcus = experiment: GAS UMAA2166 growth inhibition – luminescence, BacTiterGlo, counter-screen for streptokinase expression inhibitor project, dose response (AID 1915); assay type: functional, organism-based;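 note: potency for reduction of bacterial viability or growth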
[1] = NIH-3T3 fibroblast cytotoxicity, dose response, cytotoxicity control, cell-based, fluorescence, Alamar Blue, secondary assay (AID 2327); assay type: functional;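 note: NIH-3T3 mouse fibroblasts cultured with fluconazole at 8 µg/mL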
cells [2] = assay type: functional, cell-based
cells [3] = assay type: functional, cell-based; remark: listed apart in the source
[4] = fluconazole-exposed Candida albicans growth modulators – fluorescence, retest, confirmation (AID 2467); assay type: functional, cell-based
[5] = DRD fibroblast viability loss – cell-based, non-viral oncogenic, luminescence, dose response (AID 1934); assay type: functional; settings: Homo sapiens
[6] = system: Streptococcus sp. 'group A'; experiment: Streptococcus pyogenes SK(-)GAS viability under kanamycin – luminescence, BacTiterGlo, confirmation, counter-screen for streptokinase expression inhibitor project, dose response (AID 1900); assay type: functional, organism-based
[7] = target: T1, Type-1 angiotensin II receptor (Homo sapiens, UniProt P30556); experiment: antagonism of angiotensin II type 1 receptor – cell-based, uHTS hits, selectivity assay for APJ receptor antagonist project, dose response (AID 463214); assay type: functional;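 note: antagonist potency against angiotensin II stimulated AT1 response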
T1 sequence (P30556 whole entry): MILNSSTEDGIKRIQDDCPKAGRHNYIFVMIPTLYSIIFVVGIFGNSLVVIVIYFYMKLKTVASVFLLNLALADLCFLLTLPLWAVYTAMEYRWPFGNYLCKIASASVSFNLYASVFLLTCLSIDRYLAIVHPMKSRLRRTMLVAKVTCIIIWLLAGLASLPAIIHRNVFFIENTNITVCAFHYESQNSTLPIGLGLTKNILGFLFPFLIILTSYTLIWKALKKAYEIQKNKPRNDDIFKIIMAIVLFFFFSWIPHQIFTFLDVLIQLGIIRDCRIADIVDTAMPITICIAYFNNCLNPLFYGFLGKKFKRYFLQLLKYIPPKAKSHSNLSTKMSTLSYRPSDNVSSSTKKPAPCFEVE

Vero = experiment: cells; assay type: functional; settings: Chlorocebus sabaeus
[8] = microbe, parasite or virus in culture; assay type: functional; settings: Mycobacterium tuberculosis
[9] = decrease of insulin promoter-GFP reporter – imaging, high-content screening, mouse beta cells (AID 1628); assay type: functional; settings: MIN6
[10] = target: ATP-dependent molecular chaperone HSP82 (Candida albicans (strain WO-1) (Yeast), UniProt C4YTQ8); experiment: steroid-induced GRE reporter decrease in yeast – S. cerevisiae, luminescence, Hsp90 inhibitor project, dose response (AID 2400); assay type: functional, cell-based;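 note: beta-galactosidase luminescence from glucocorticoid response element reporter as proxy for Hsp90 function; inhibitor potency where signal loss means Hsp90 inhibition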
ATP-dependent molecular chaperone HSP82, sequence (C4YTQ8 whole entry): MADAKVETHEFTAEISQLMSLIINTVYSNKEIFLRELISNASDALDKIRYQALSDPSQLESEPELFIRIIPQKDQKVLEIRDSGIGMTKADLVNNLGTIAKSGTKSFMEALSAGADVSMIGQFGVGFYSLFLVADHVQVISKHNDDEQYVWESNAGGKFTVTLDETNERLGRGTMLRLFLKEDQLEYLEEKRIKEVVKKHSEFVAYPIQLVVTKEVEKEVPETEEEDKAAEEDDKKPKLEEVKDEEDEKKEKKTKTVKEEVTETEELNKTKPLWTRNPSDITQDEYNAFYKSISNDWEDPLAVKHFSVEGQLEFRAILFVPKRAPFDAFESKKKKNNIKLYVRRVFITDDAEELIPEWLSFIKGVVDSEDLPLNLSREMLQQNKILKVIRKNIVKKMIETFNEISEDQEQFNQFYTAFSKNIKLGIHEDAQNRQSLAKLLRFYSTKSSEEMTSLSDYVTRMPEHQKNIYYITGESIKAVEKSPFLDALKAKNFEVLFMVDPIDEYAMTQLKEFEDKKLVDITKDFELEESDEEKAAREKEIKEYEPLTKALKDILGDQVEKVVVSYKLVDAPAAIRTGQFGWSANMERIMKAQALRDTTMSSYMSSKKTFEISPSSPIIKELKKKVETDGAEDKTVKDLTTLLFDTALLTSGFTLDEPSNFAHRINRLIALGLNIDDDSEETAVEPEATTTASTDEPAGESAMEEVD

[11] = MIN6 cell viability loss – mouse insulinoma, cytotoxicity control, dose response (AID 2122); assay type: functional;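 note: confirmatory high-throughput counterscreen run to flag cytotoxic compounds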
[12] = HepG2 cell cytotoxicity, dose response, cytotoxicity control for non-replicating M. tuberculosis project (AID 489018); assay type: functional; settings: Mycobacterium tuberculosis
[13] = non-specific 3'UTR reporter inhibition in Clone20-Shn3RL – cell-based, Renilla luciferase, cherry-picked, counter-screen for Shn3 inhibitor project, dose response (AID 624133); assay type: functional
[14] = target: T2, Sphingosine 1-phosphate receptor 4 (Homo sapiens, UniProt O95977); experiment: Fluorescence dose response cell-based high throughput screening assay for antagonists of the Sphingosine 1-Phosphate Receptor 4 (S1P4). [Related pubchem assays: 1524 (Confirmation in triplicates.), 1510 (Primary screen.)]; assay type: functional
T2 sequence (O95977 whole entry): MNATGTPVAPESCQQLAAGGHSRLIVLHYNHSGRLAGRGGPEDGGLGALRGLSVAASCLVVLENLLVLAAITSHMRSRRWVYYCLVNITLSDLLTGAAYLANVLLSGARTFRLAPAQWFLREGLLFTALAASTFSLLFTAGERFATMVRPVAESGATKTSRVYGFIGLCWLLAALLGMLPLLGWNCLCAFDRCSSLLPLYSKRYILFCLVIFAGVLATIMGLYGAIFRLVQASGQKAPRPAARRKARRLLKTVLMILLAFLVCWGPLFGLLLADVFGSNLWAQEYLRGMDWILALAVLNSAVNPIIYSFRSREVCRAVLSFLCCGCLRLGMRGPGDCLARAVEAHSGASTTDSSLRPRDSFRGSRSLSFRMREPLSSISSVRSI

[15] = blockers of HIV-1 envelope-mediated cell-cell fusion – cherry-pick, dose response (AID 652057); assay type: functional, cell-based
[16] = viability loss in CEM21 cells – cell-based, CellTiter-Glo luminescence, cherry-picked, cytotoxicity control for viral fusion inhibitor project, dose response (AID 652042); assay type: functional;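 note: potency for signal decrease meaning cytotoxicity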
Protein RecA = target: T3, Protein RecA (Mycobacterium tuberculosis, UniProt P9WHJ3); experiment: Fluorescence Cell-Free Homogeneous Dose Retest to Identify Inhibitors of RecA-Intein Splicing Activity. [Related pubchem assays (depositor defined):AID2097, AID2223, AID489010, AID492950]; assay type: functional
T3 sequence (P9WHJ3 whole entry): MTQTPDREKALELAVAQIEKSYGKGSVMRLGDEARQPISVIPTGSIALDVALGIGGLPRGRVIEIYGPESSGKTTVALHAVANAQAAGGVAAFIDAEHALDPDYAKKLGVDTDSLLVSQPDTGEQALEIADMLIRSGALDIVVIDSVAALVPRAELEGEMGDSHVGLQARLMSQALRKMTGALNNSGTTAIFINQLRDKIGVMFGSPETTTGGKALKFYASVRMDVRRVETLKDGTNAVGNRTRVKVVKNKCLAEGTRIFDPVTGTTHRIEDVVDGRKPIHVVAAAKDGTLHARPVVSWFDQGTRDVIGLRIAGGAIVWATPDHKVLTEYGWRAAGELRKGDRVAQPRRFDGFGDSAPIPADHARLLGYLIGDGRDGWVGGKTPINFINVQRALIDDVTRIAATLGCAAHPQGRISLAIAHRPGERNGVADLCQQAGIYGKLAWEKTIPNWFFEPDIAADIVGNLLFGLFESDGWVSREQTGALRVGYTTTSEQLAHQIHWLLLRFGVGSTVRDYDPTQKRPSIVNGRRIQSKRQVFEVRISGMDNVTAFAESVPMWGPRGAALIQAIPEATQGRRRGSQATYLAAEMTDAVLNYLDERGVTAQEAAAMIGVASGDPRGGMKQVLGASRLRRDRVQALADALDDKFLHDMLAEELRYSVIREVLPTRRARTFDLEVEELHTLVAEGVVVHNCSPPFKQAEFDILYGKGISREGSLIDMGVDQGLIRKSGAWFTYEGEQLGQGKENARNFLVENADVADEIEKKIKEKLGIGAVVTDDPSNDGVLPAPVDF

[17] = target: T4, Mitochondrial peptide methionine sulfoxide reductase (Bos taurus, UniProt P54149); assay type: functional;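 note: absorbance read-out, biochemical high-throughput dose-response screen for MsrA inhibitors, confirmatory; recombinant bovine MsrA coupled to E. coli TrxB with NADPH and selenocystamine; potency is for inhibitors of MsrA activity on DMSO substrate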
T4 sequence (P54149 whole entry): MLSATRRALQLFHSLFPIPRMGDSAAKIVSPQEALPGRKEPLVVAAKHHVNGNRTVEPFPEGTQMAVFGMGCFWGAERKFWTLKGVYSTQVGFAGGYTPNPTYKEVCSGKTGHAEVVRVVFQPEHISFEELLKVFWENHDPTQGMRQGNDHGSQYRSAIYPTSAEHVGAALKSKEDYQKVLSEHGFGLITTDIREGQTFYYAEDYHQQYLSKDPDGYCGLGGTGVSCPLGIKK

SMILES | EC50 (Streptococcus) | EC50 [1] | EC50 (cells [2]) | EC50 (cells [3]) | EC50 [4] | EC50 [5] | EC50 [6] | IC50 [7] | CC50 (Vero) | CC50 [8] | IC50 [9] | EC50 [10] | IC50 [11] | CC50 [12] | AC50 [13] | IC50 [14] | AC50 [15] | AC50 [16] | EC50 (Protein RecA) | IC50 [17]
COc1cccc(/C=N/Nc2ccc([N+](=O)[O-])cn2)c1O | 1.65 µM (active) | 1.61 µM (inconclusive) | > 350 µM (not active) | 5.16 µM (active) | 1.51 µM (active) | 3.96 µM (active) | 0.912 µM (active) | – | – | – | – | – | – | – | – | – | – | – | – | –
Oc1c(C(c2ccccc2Cl)N2CCCC2)ccc2cccnc12 (stereo unspecified) | – | > 160 µM (inactive) | 27.4 µM (active) | > 350 µM (not active) | 1.08 µM (active) | – | – | 12 µM (active) | 17.1 µM (active) | 30.5 µM (active) | 5.2 µM (active) | > 160 µM (inactive) | 4.59 µM (active) | 17.6 µM (active) | 6.38 µM (active) | 2.25 µM (active) | – | – | – | –
CCc1ccc(S(=O)(=O)/N=C2\C=C(Nc3ccc(C(=O)O)cc3)C(=O)c3ccccc32)cc1 | 6.26 µM (active) | – | – | – | – | – | 0.451 µM (active) | – | – | – | – | – | – | – | – | – | 8.79 µM (active) | 6.53 µM (active) | 0.124 µM (active) | 5 µM (active)
